In patent US6875766B2, “Use of riboflavin and flavin derivatives as chitinase inhibitors” (Bayer AG, priority 2000, dated 2005):

How the values were obtained:
[1] = molecular target: Lucilia cuprina chitinase; assay: Chitinase inhibitory activity (IC50) against Lucilia cuprina chitinase; assay type: biochemical
Description: (§1) The chitinase inhibitory activity was determined as already described [Omura, S., Arai, N., Yamaguchi, Y., Masuma, R., Iwai, Y., Namikoshi, M., Turberg, A., Kölbl, H., Shiomi, K., J. Antibiot., 53, 603-608 (2000)].

[2] = system: Vibrio alginolyticus chitinase (Kyowa Medex); assay: Chitinase inhibitory activity against Vibrio alginolyticus chitinase; assay type: biochemical; details: at 100 μM (37° C.)
Description: as §1

[3] = system: Lucilia cuprina endochitinase; assay: Chitinase test with soluble extracts from Lucilia cuprina puppae; assay type: biochemical; details: cytosolic extract of late pupae, MUF-triacetylchitotriose substrate
Description: Chitinase test with soluble extracts from Lucilia cuprina puppae
Test animals: Cytosol of Lucilia cuprina
The substances, which are dissolved in DMSO, are provided on 384-well microtiter plates in a concentration of 2 mM, the first four columns being empty. The substances are diluted 1:40 with 100 mM NPP pH 7.0 (50 μM). 5 μl of each of these dilutions are transferred to a 384-well test plate, starting with column 5. Into the first two columns there are pipetted in each case as negative control, into the third and fourth column in each case 5 μl of 5×10^-6 M allosamidin in 2.5% DMSO in 100 mM NPP pH 7.0 5 μl 2.5% DMSO in 100 mM NPP pH 7.0 as positive control.
The substances are incubated for 20 minutes at room temperature with 2.5 μg of cytosolic extract of late Lucilia cuprina puppae in 10 μl of 100 mM sodium phosphate buffer pH 7.0 and 10 μl of 100 μM methylumbelliferyl (MUF-triacetylchitotriose). The reaction is quenched by addition of 25 μl of 0.5 M glycine buffer 2 M sodium hydroxide, pH 10.4. The inhibition is determined by measuring the relative fluorescence at an excitation of 360±40 nm and an emission of 460±40 nm. The test substances are evaluated in comparison with the inhibition of the enzyme by allosamidin. The inhibition of the release of MUF is a measure for the efficacy of the inhibitor. In subsequent tests, concentration series in the range of from 100 nM to 200 μM are tested, and the release of MUF is measured every 2 minutes before the reaction is quenched.
Compounds which lead to more than 50% inhibition of chitinase at maximum reaction velocity at 100 μM are assessed as effective.

[4] = system: Streptomyces griseus chitinase (Sigma); assay: Chitinase inhibitory activity against Streptomyces griseus chitinase; assay type: biochemical; details: at 100 μM (37° C.)
Description: as §1

[5] = system: Periplaneta americana, third instar; assay: Injection test with Periplaneta larvae; assay type: in vivo; details: 2 μg injected per larva; observed over 23 days
Description: Injection test with Periplaneta larvae
Test animals: Periplaneta americana, third instar
The compounds are prepared in aqueous solution (0.1 N acetic acid) and diluted as required. Using a 10 μl Hamilton syringe, 1 μl of the 20 or 2 μg were injected behind the 3rd pair of legs closely underneath the abdominal cavity of the cockroach larvae. Solvent (0.1 N acetic acid) was applied as control and 10 μg allosamidine as positive control. Batches of twenty cockroach larvae were treated per concentration and compound. On day 1, the control mortality and the initial mortality caused essentially by artificial effects during the injection were determined. If this initial mortality was less than 50%, the experiment was continued. The cockroach larvae were placed on filter paper in standard Petri dishes (9.5 cm Ø), and a quarter of a wafer was added. The ecdysis rate of the control animals and of the treated cockroach larvae was observed over a period of 23 days, and larval mortality and inhibition of ecdysis were recorded after days 1, 5 and 23. The efficacy is calculated using the following formula. [formula]

Compound: Cc1cc2nc3c(=O)[nH]c(=O)nc-3n(C[C@H](O)[C@H](O)[C@H](O)CO)c2cc1C [compound 1, riboflavin]
- IC50 ([1]; 20° C.): 380 nM
- IC50 ([1]; 37° C.): 2100 nM
- inhibition of the Vibrio alginolyticus chitinase [2]: no inhibition
- inhibition of the Lucilia cuprina endochitinase ([3]; 10 μM): >>50%
- inhibition of the Lucilia cuprina endochitinase ([3]; 100 μM): >>50%
- inhibition of the Lucilia cuprina endochitinase ([3]; 200 μM): >>>50%
- inhibition of the Streptomyces griseus chitinase [4]: no inhibition
- mortality against Periplaneta americana third instars [5]: More than 50%
